Test results: ChEMBL document CHEMBL1122830, “N-(Phosphonoacetyl)amino phosphonates. Phosphonate analogues of N-(phosphonoacetyl)-L-aspartic acid (PALA)” (1985)
Activity calls are given as the source filed them. The calls are words filed in the database; no cut-off is given here.

How the values were obtained:
KB [1] = assay: Inhibitory activity against human KB cell line at the dose range of 1-400 (ug/mL); NA=Not active; assay type: functional, cell-based
KB [2] = assay: Inhibitory activity against human KB cell line; assay type: functional; conditions: read-out: ID50 (the source's name)

| SMILES | ID50 (KB [1]) | IC50 (KB [2]) [mg/L] |
| --- | --- | --- |
| CCOP(=O)(OCC)C(N)C1CC1 (stereo unspecified) | inactive | – |
| O=C(O)CCCC(NC(=O)CP(=O)(O)O)P(=O)(O)O (stereo unspecified) | inactive | – |
| O=C(CP(=O)(O)O)NC(C1CCCCC1)P(=O)(O)O (stereo unspecified) | inactive | – |
| O=C(CP(=O)(O)O)NC1(P(=O)(O)O)CCCC1 | inactive | – |
| O=C(CP(=O)(O)O)NCCCP(=O)(O)O | inactive | – |
| CC(C)(NC(=O)CP(=O)(O)O)P(=O)(O)O | inactive | – |
| CCOC(=O)CCCC(N)P(=O)(OCC)OCC (stereo unspecified) | inactive | – |
| O=C(O)CC(NC(=O)CP(=O)(O)O)P(=O)(O)O (stereo unspecified) | inactive | – |
| O=C(CP(=O)(O)O)NC(C1CCC1)P(=O)(O)O (stereo unspecified) | inactive | – |
| CC(C)C(NC(=O)CP(=O)(O)O)P(=O)(O)O (stereo unspecified) | inactive | – |
| O=C(CP(=O)(O)O)NC(C1CC1)P(=O)(O)O (stereo unspecified) | inactive | – |
| O=C(CP(=O)(O)O)NC(c1ccccc1)P(=O)(O)O (stereo unspecified) | inactive | – |
| CC(C)(C)C(NC(=O)CP(=O)(O)O)P(=O)(O)O (stereo unspecified) | inactive | – |
| CCOP(=O)(OCC)C(N)C(C)(C)C.O=C(O)C(=O)O (stereo unspecified) | – | 240 |
| CCOP(=O)(OCC)C(N)C1CCCC1 (stereo unspecified) | inactive | – |
| CCCC(NC(=O)CP(=O)(O)O)P(=O)(O)O (stereo in doubt; form 1) | inactive | – |
| CCOP(=O)(OCC)C(N)C1CCCCC1 (stereo unspecified) | inactive | – |
| CCOP(=O)(OCC)C(N)CCC(=O)OC (stereo unspecified) | inactive | – |
| CCCC(NC(=O)CP(=O)(O)O)P(=O)(O)O (stereo in doubt; form 2) | inactive | – |
| O=C(O)CC(NC(=O)CP(=O)(O)O)C(=O)O (stereo unspecified) | inactive | – |
| O=C(O)CCC(NC(=O)CP(=O)(O)O)P(=O)(O)O (stereo unspecified) | inactive | – |
| CC(NC(=O)CP(=O)(O)O)P(=O)(O)O (stereo unspecified) | inactive | – |
| CCOP(=O)(OCC)C(N)C1CCC1 (stereo unspecified) | inactive | – |
| O=C(CP(=O)(O)O)NC(CP(=O)(O)O)C(=O)O (stereo unspecified) | inactive | – |
| CCP(=O)(O)CNC(=O)CP(=O)(O)O | inactive | – |
| O=C(CP(=O)(O)O)NC(C1CCCC1)P(=O)(O)O (stereo unspecified) | inactive | – |
